Assay results reported in PubChem BioAssay AID256 (DTP/NCI, 2004).
Toxic doses and inconclusive results are not listed. The calls were made as follows: active = survival T/C of 150% or more; inactive = T/C below 125% in these data.

Test system: CD2F1 mice, L1210 leukemia ip, survival T/C
Test: NCI In Vivo Anticancer Drug Screen. Data for tumor model L1210 Leukemia (intraperitoneal) in CD2F1 (CDF1) mice
Details: higher = longer survival
Procedure, shortened: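 Ratio T/C, where T is the treated-group value and C the vehicle-dosed control value, from mice implanted with a transplantable tumor.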

Measured: T/C

c1ccc([As]2[As](c3ccccc3)[As](c3ccccc3)[As]2c2ccccc2)cc1 (stereo not drawn)
inactive: endpoint: mean survival time, dose: 5.0 mg/kg/injection, schedule: Q01DX001 (ip), vehicle: saline 101 % of control | endpoint: mean survival time, dose: 10.0 mg/kg/injection, schedule: Q01DX001 (ip), vehicle: saline 108 % of control | endpoint: mean survival time, dose: 20.0 mg/kg/injection, schedule: Q01DX001 (ip), vehicle: saline 111 % of control | endpoint: mean survival time, dose: 40.0 mg/kg/injection, schedule: Q01DX001 (ip), vehicle: saline 113 % of control | endpoint: mean survival time, dose: 80.0 mg/kg/injection, schedule: Q01DX001 (ip), vehicle: saline 119 % of control

CCOP(=O)(OCC)OC(C)C#N (stereo not drawn)
inactive: endpoint: mean survival time, dose: 12.5 mg/kg/injection, schedule: Q01DX009 (ip), vehicle: saline 97 % of control | endpoint: mean survival time, dose: 25.0 mg/kg/injection, schedule: Q01DX009 (ip), vehicle: saline 97 % of control

O=C1C2C=CC=CC1C1C=CC=CC21 (stereo not drawn)
inactive: endpoint: median survival time, dose: 50.0 mg/kg/injection, schedule: Q04DX002 (ip), vehicle: saline with Tween-80 112 % of control | endpoint: median survival time, dose: 100.0 mg/kg/injection, schedule: Q04DX002 (ip), vehicle: saline with Tween-80 100 % of control | endpoint: median survival time, dose: 200.0 mg/kg/injection, schedule: Q04DX002 (ip), vehicle: saline with Tween-80 100 % of control | endpoint: median survival time, dose: 400.0 mg/kg/injection, schedule: Q04DX002 (ip), vehicle: saline with Tween-80 100 % of control

C[C@@H]1C[C@H]2[C@@H]3CCC4=CC(=O)C=C[C@]4(C)[C@@]3(F)[C@@H](O)C[C@]2(C)[C@@]1(O)C(=O)CO
inactive: endpoint: mean survival time, dose: 3.12 mg/kg/injection, schedule: Q01DX009 (ip), vehicle: suspension in saline 116 % of control | endpoint: mean survival time, dose: 6.25 mg/kg/injection, schedule: Q01DX009 (ip), vehicle: suspension in saline 108 % of control | endpoint: mean survival time, dose: 12.5 mg/kg/injection, schedule: Q01DX009 (ip), vehicle: suspension in saline 108 % of control | endpoint: mean survival time, dose: 25.0 mg/kg/injection, schedule: Q01DX009 (ip), vehicle: suspension in saline 122 % of control | endpoint: mean survival time, dose: 50.0 mg/kg/injection, schedule: Q01DX009 (ip), vehicle: suspension in saline 110 % of control

CCCCCCCCCCCCCCCC(=O)NCCN(CC)CC
inactive: endpoint: mean survival time, dose: 25.0 mg/kg/injection, schedule: Q01DX009 (ip), vehicle: saline with Tween-80 95 % of control | endpoint: mean survival time, dose: 50.0 mg/kg/injection, schedule: Q01DX009 (ip), vehicle: saline with Tween-80 98 % of control | endpoint: mean survival time, dose: 75.0 mg/kg/injection, schedule: Q04DX003 (ip), vehicle: saline with Tween-80 97 % of control | endpoint: mean survival time, dose: 150.0 mg/kg/injection, schedule: Q01DX001 (ip), vehicle: saline 98 % of control

O=Cc1cc2c(c3ccccc13)CCCC2
inactive: endpoint: mean survival time, dose: 100.0 mg/kg/injection, schedule: Q01DX009 (ip), vehicle: saline with Tween-80 97 % of control | endpoint: mean survival time, dose: 200.0 mg/kg/injection, schedule: Q01DX009 (ip), vehicle: saline with Tween-80 98 % of control | endpoint: mean survival time, dose: 400.0 mg/kg/injection, schedule: Q01DX009 (ip), vehicle: saline with Tween-80 98 % of control
